Measured values from US10703764B2, “Benzopiperazine compositions as BET bromodomain inhibitors” (FORMA Therapeutics, Inc., priority 2013, dated 2020).
Where two headings read alike, the source gives them in different places.

Experiments:
BRD4 BD1 = target: T1, BRD4 BD1 (Homo sapiens, UniProt O60885); test: AlphaScreen binding assay, BRD4 Bromodomain 1
T1 construct: made in house
How it was run: (§1)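 Compound dilution series were mixed with His-tagged BRD4 bromodomain and biotinylated tetra-acetylated H4 (1-21) peptide at pH 7.3 (BD1 and peptide at 50 nM, BD2 and peptide at 100 nM). Donor and acceptor beads were then added, and plates were equilibrated at least 1 h before reading. IC50 values were fitted with a four-parameter logistic model.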

BRD4 BD2 = target: T2, BRD4 BD2 (Homo sapiens, UniProt O60885); test: AlphaScreen binding assay, BRD4 Bromodomain 2
T2 construct: made in house
How it was run: as §1

MV4-11 cells = test: Oncology cell growth assay (3-day proliferation, CellTiter-Glo); format: cell-based; settings: Homo sapiens, AML cell line MV4-11, 72 hours, compounds grouped by IC50 range, read-out: MV4-11 IC50 (inhibition of proliferation, gIC50)
How it was run: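 A 3-day proliferation test used MV4-11 cells seeded at 3000 per well with eight compound concentrations (10 μM top, 3-fold dilution) at 37° C in 5% CO2. CellTiter-Glo luminescence defined viable cell signal. A four-parameter logistic curve against DMSO and background wells gave the gIC50.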

| Compound | IC50 (BRD4 BD1) [nM] | IC50 (BRD4 BD2) [nM] | IC50 (MV4-11 cells; MV4-11, 72 h) [nM] | IC50 (MV4-11 cells) [nM] |
| --- | --- | --- | --- | --- |
| CC(=O)N1c2ccc(-c3cnn(C4CCOCC4)c3)cc2N(C(=O)OC2CCC2)C[C@@H]1C [Example I-39, (S)-cyclobutyl 4-acetyl-3-methyl-7-(1-(tetrahydro-2H-pyran-4-yl)-1H-pyrazol-4-yl)-3,4-dihydroquinoxaline-1(2H)-carboxylate] | 100 to 1000 | < 50 | < 100 | – |
| COC(=O)N1c2ccc(-c3cnn(C4CC4)c3)cc2N(C(=O)OC2CCCC2)C[C@@H]1C [Example I-40, (S)-4-cyclopentyl 1-methyl 6-(1-cyclopropyl-1H-pyrazol-4-yl)-2-methyl-2,3-dihydroquinoxaline-1,4-dicarboxylate] | 100 to 1000 | 50 to 500 | – | 100 to 500 |
| C[C@H]1CN(C(=O)OC2CCCC2)c2cc(-c3cnn(C4CC4)c3)ccc2N1C(=O)C1CC1 [Example I-41, (S)-cyclopentyl 4-(cyclopropanecarbonyl)-7-(1-cyclopropyl-1H-pyrazol-4-yl)-3-methyl-3,4-dihydroquinoxaline-1 (2H)-carboxylate] | 100 to 1000 | 50 to 500 | 100 to 500 | – |
| COC(=O)N1c2ccc(-c3cnn(C4CC4)c3)cc2N(C(=O)C2CC2)C[C@@H]1C [Example I-42, (S)-methyl 4-(cyclopropanecarbonyl)-6-(1-cyclopropyl-1H-pyrazol-4-yl)-2-methyl-3,4-dihydroquinoxaline-1 (2H)-carboxylate] | 100 to 1000 | 50 to 500 | – | 100 to 500 |
| COC(=O)N1c2ccc(-c3cnn(C4CC4)c3)cc2N(C(=O)OC(C)C)C[C@@H]1C [Example I-43, (S)-4-isopropyl 1-methyl 6-(1-cyclopropyl-1H-pyrazol-4-yl)-2-methyl-2,3-dihydroquinoxaline-1,4-dicarboxylate] | 100 to 1000 | 50 to 500 | > 500 | – |
| CC(=O)N1c2ccc(-c3cnn(C4CC4)c3)cc2N(c2nc3ccccc3o2)C[C@@H]1C [Example I-44, (S)-1-(4-(benzo[d]oxazol-2-yl)-6-(1-cyclopropyl-1H-pyrazol-4-yl)-2-methyl-3,4-dihydroquinoxalin-1(2H)-yl)ethanone] | 100 to 1000 | 50 to 500 | 100 to 500 | – |
| CC(=O)N1c2ccc(-c3ccc(S(C)(=O)=O)cc3)cc2N(c2nc3ccccc3o2)C[C@@H]1C [Example I-46, (S)-1-(4-(benzo[d]oxazol-2-yl)-2-methyl-6-(4-(methylsulfonyl)phenyl)-3,4-dihydroquinoxalin-1(2H)-yl)ethanone] | 100 to 1000 | > 500 | 100 to 500 | – |
| CC(=O)N1c2ccc(-c3cnn(C4CC4)c3)cc2N(c2ncc3ccccc3n2)C[C@@H]1C [Example I-51, (S)-1-(6-(1-cyclopropyl-1H-pyrazol-4-yl)-2-methyl-4-(quinazolin-2-yl)-3,4-dihydroquinoxalin-1(2H)-yl)ethanone] | 100 to 1000 | 50 to 500 | 100 to 500 | – |
| CC(=O)N1c2ccc(-c3cnn(C4CC4)c3)cc2N(c2nn(C)c3ccccc23)C[C@@H]1C [Example I-52, (S)-1-(6-(1-cyclopropyl-1H-pyrazol-4-yl)-2-methyl-4-(1-methyl-1H-indazol-3-yl)-3,4-dihydroquinoxalin-1(2H)-yl)ethanone] | 100 to 1000 | < 50 | < 100 | – |
| CC(=O)N1c2ccc(-c3cnn(C4COC4)c3)cc2N(c2nn(C)c3ccccc23)C[C@@H]1C [Example I-53, (S)-1-(2-methyl-4-(1-methyl-1H-indazol-3-yl)-6-(1-(oxetan-3-yl)-1H-pyrazol-4-yl)-3,4-dihydroquinoxalin-1(2H)-yl)ethanone] | 100 to 1000 | < 50 | 100 to 500 | – |
| CC(=O)N1c2ccc(-c3cnn(C4CC4)c3)cc2N(c2nn(C)c3cc(F)ccc23)C[C@@H]1C [Example I-54, (S)-1-(6-(1-cyclopropyl-1H-pyrazol-4-yl)-4-(6-fluoro-1-methyl-1H-indazol-3-yl)-2-methyl-3,4-dihydroquinoxalin-1(2H)-yl)ethanone] | 100 to 1000 | 50 to 500 | < 100 | – |
| CC(=O)N1c2ccc(-c3cnn(C4CC4)c3)cc2N(c2nn(C)c3ccc(F)cc23)C[C@@H]1C [Example I-55, (S)-1-(6-(1-cyclopropyl-1H-pyrazol-4-yl)-4-(5-fluoro-1-methyl-1H-indazol-3-yl)-2-methyl-3,4-dihydroquinoxalin-1(2H)-yl)ethanone] | 100 to 1000 | < 50 | 100 to 500 | – |
| CC(=O)N1c2ccc(-c3cnn(C4COC4)c3)cc2N(C(=O)OC2COC2)C[C@@H]1C [Example I-59, (S)-oxetan-3-yl 4-acetyl-3-methyl-7-(1-(oxetan-3-yl)-1H-pyrazol-4-yl)-3,4-dihydroquinoxaline-1(2H)-carboxylate] | 100 to 1000 | 50 to 500 | > 500 | – |
| CC(=O)N1c2ccc(-c3cnn(C4COC4)c3)cc2N(C(=O)OCC2CCC2)C[C@@H]1C [Example I-60, (S)-cyclobutylmethyl 4-acetyl-3-methyl-7-(1-(oxetan-3-yl)-1H-pyrazol-4-yl)-3,4-dihydroquinoxaline-1(2H)-carboxylate] | 100 to 1000 | 50 to 500 | 100 to 500 | – |
| CC(=O)N1c2ccc(-c3cnn(C4COC4)c3)cc2N(C(=O)OCC(Cl)Cl)C[C@@H]1C [Example I-62, (S)-2,2-dichloroethyl 4-acetyl-3-methyl-7-(1-(oxetan-3-yl)-1H-pyrazol-4-yl)-3,4-dihydroquinoxaline-1(2H)-carboxylate] | 100 to 1000 | 50 to 500 | 100 to 500 | – |
| CC(=O)N1c2ccc(-c3cnn(C4COC4)c3)cc2N(C(=O)OC2CC(F)(F)C2)C[C@@H]1C [Example I-65, (S)-3,3-difluorocyclobutyl 4-acetyl-3-methyl-7-(1-(oxetan-3-yl)-1H-pyrazol-4-yl)-3,4-dihydroquinoxaline-1(2H)-carboxylate] | < 100 | < 50 | 100 to 500 | – |
| CC(=O)N1c2ccc(-c3cnn(C4COC4)c3)cc2N(C(=O)OCC2(F)COC2)C[C@@H]1C [Example I-66, (S)-(3-fluorooxetan-3-yl)methyl 4-acetyl-3-methyl-7-(1-(oxetan-3-yl)-1H-pyrazol-4-yl)-3,4-dihydroquinoxaline-1(2H)-carboxylate] | < 100 | < 50 | 100 to 500 | – |
| CC(=O)N1c2ccc(-c3cnn(C4COC4)c3)cc2N(C(=O)OCCC(F)(F)F)C[C@@H]1C [Example I-69, (S)-3,3,3-trifluoropropyl 4-acetyl-3-methyl-7-(1-(oxetan-3-yl)-1H-pyrazol-4-yl)-3,4-dihydroquinoxaline-1(2H)-carboxylate] | < 100 | < 50 | 100 to 500 | – |
| CC(=O)N1c2ccc(-c3cnn(C4COC4)c3)cc2N(C(=O)OCC(F)(F)F)C[C@@H]1C [Example I-71, (S)-2,2,2-trifluoroethyl 4-acetyl-3-methyl-7-(1-(oxetan-3-yl)-1H-pyrazol-4-yl)-3,4-dihydroquinoxaline-1(2H)-carboxylate] | < 100 | < 50 | 100 to 500 | – |
| CC(=O)N1c2ccc(-c3cnn(C4COC4)c3)cc2N(C(=O)OC(CF)CF)C[C@@H]1C [Example I-72, (S)-1,3-difluoropropan-2-yl 4-acetyl-3-methyl-7-(1-(oxetan-3-yl)-1H-pyrazol-4-yl)-3,4-dihydroquinoxaline-1(2H)-carboxylate] | 100 to 1000 | < 50 | 100 to 500 | – |
